Columns and labels:
[1] = system: Orobanche aegyptiaca seeds; experiment: Orobanche Germination Assay (biological activity after stress treatments); assay type: in vivo
Description: The implementation of the strigolactone analogs necessitates a degree of material stability, to ensure their activity on the plant under various growth conditions. Accordingly, the stability of the strigolactone analog GR24 was tested under different environmental conditions. GR24 in acetone stock solution of 5.6 mM was diluted in double distilled water (DDW) or HPC pre-made gel to a concentration of 0.56 μM in eppendorf tubes and was subjected to the following treatments:
GR24 solutions of 0.56 μM, diluted either in DDW or in HPC pre-made gel in eppendorf tubes were incubated in a dry block heater at temperatures of 4° C., 20° C., 40° C., 60° C. digitally set for periods of 3 h, 1 d, 2 d, 4 d, 5 d and 7 d under ambient light.
GR24 solutions of 0.56 μM, diluted either in DDW or in HPC pre-made gel, each in quartz tubes (15 replicates for each treatment) were exposed to UV radiation of λ=312 nm under UV lamp of 600 or 857 μE intensity for periods of 15 min, 30 min or 18 h.
Biological activity was determined by Orobanche Germination Assay: Approximately 30 to 50 seeds of Orobanche aegyptiaca were spread on a glass fiber filter paper disk (9-mm diameter) and put into sterile petri dishes (9-cm diameter) lined with Whatman filter paper wetted with 3 mL of demineralized water. Petri dishes were sealed with parafilm and incubated at 27° C. for preconditioning. After one week of preconditioning period, the glass fiber filter paper disks with Orobanche seeds were removed from the petri dish and dried for 20 min to remove surplus moisture. The disks were transferred to another petri dish within a filter paper ring (outer diameter of 9 cm; inner diameter of 8 cm) wetted with 0.9 mL of water, which maintained a moist environment during the germination bioassay. Forty microliters of the GR24 test solutions were added to the disks. Untreated GR24 at a 0.56 μM concentration was used as a positive control, water or HPC pre-made gel as negative controls. Germination percent was calculated using the counter cell analysis of the IMAGEJ (http://www.//rsbweb.nih.gov/ij/) software. Germinated seeds were distinguished from non-germinated seeds according to the seedling radicles, which are a few millimeters long and visible under a stereomicroscope (Leica MZFLIII, Leica Microsystems, GmbH).
For each of the GR24 treatments fifteen replicates with 30-40 seeds were tested per treatment with 40 μl of 0.56 μM GR24 test solutions pre-treated as described above. The experiment was repeated three times (n=450 seeds).
Next, GR24 was stabilized with Hydroxypropyl Cellulose (HPC), which is a […] medium. Granular HPC [Sigma-Aldrich Israel Ltd., CAS-No. 9004-64-2] […]

Picual olives = experiment: Application of strigolactone analogs by irrigation to olive seedlings; assay type: in vivo, Olea europaea L.; details: for number of growing buds / lateral branches: irrigation to roots twice a week for 6 weeks, 0.03 and 0.3 μM, vs control
Description: The effect of application of various analogues of strigolactone (SL) on olives, given to roots by irrigation was examined. Three different SL analogs; […] The seedlings were rooted from cuttings and hardened, and were about 6 months old at the time of the experiment. Growth soil mixture was used as in the nursery. Each strigolactone analog was dissolved in acetone to give a 5.6 mM solution. This solution was then further diluted with distilled water to 0.03 and 0.3 μM. The diluted solution was injected to the roots twice a week for 6 weeks, and subsequently all the growing buds were counted. For each treatment (treated and control groups) 10 plants were measured. Experiments were repeated three times.

[2] = Mass spectrometry analysis of GR24 test solutions (molecular stability); assay type: physicochemical
Description: Mass spectrometry (MS) analysis was performed to GR24 test solutions using the Orbitrap XL (Thermo Fisher Scientific). The samples were injected directly using direct spray injection probe, in 50% acetonitrile solution and at […] flow rate. A full scan was acquired to detect the GR24 peaks, at 60,000 resolution, Maximum ion fill time settings were 300 ms for the high resolution full scan in the Orbitrap analyzer. The spectra are sum of 10 sec acquisition. Results observed by Xcalibur© software of Thermo Fisher Scientific Inc. version 2.0.7. were analyzed manually.
Next, GR24 was stabilized with Hydroxypropyl Cellulose (HPC), which is a […] medium. Granular HPC [Sigma-Aldrich Israel Ltd., CAS-No. 9004-64-2] (1 g) was ground to a fine powder using a mortar and pestle, mixed with sterile distilled water to make about 10 mL of gel, and then allowed to stand for 1 day for complete dissolution at room temperature. Stability of GR24 was tested by both biological activity of the strigolactone and by assessing the molecule using LC-MS.

olive seedling = experiment: Application to olive seedling stem under greenhouse conditions (parafilm, flexible or rigid tubes); details: in vivo
Description: EGO10 either with PVAc, or HPC+glycerin were applied on olive seedling stem by the use of parafilm cover as the apparatus, under greenhouse conditions (FIG. 15). Greenhouse conditions include controlled room temperature of 25° C. In each experiment, 10 plants were used for each treatment. The substances were applied on the stem by a spatula and covered with parafilm.
In attempt to improve the performance of the apparatus, different substances and different cover were used. Four formulations were developed and tested. These formulations are based on polysaccharide-sorbent-humidifier substances while the main difference between them is the viscosity of the final product and the ability to retain and release of the active ingredient (EGO 10). […] The cover consisted of a flexible plastic tube that was cut (FIG. 16A), placed on the seedling stem (FIG. 16B) and wrapped with transparent plaster (FIG. 16C). The plastic tubes were filled with the experimental material (FIG. 16D). Moist cotton was placed on both sides of the tubes to minimize water evaporation (FIG. 16E and FIG. 16F). Bud outgrowth was measured for 30 days.
Rigid plastic tubes were tested in order to determine their efficiency as a delivery device for application of the hormone formulations to plants. At first, eppendorf tubes served as prototype. The tubes ware cut from top to bottom and placed on the stem of seedlings. Each tube was sealed with a small moist cotton at the bottom, filled with 1 ml of the examined material and finally covered with transparent plastic tape (FIGS. 17A-17E). The tubes were filled with (HPC+glycerin), or PVAc and EGO10 In each experiment, 10 plants were used for each treatment. Greenhouse conditions include controlled room temperature of 25° C.
EGO10 (10 μM) or acetone control together with HPC+glycerin or PVAc were applied on the stem of olive cuttings by the use of rigid plastic tubes as described in Example 10 above.
Bud outgrowth of olive cuttings was measured until day 30.

seedling outgrowth with medium plus acetone control (olive seedling)	Molecule	biological activity (Orobanche germination) after stress ([1]; 0.56 μM, long term exposure (over 5 days) to temperatures above 40° C., acidic pH solutions, UV irradiation)	biological activity in HPC medium ([1]; GR24 in HPC pre-made gel)	number of growing buds / lateral branches (Picual olives)	concentration at which the effect was most prominent (Picual olives; irrigation twice a week, 0.03 and 0.3 μM tested) [µM]	structure of the molecule in HPC medium (LC-MS) ([2]; GR24 in HPC, under the examination conditions)	molecular stability (MS) ([2]; long term exposure (over 5 days) to temperatures above 40° C., acidic pH solutions, UV irradiation)
	CC1=C[C@H](O/C=C2/C(=O)O[C@@H]3c4ccccc4C[C@H]23)OC1=O (relative stereo) [GR24, (3aR*,8bS*,E)-3-(((R*)-4-methyl-5-oxo-2,5-dihydrofuran-2-yloxy)-methylene)-3,3a,4,8b-tetrahydro-2H-indeno[1,2-b]furan-2-one, reference compound]	loses biological activity	stabilized GR24 by increasing its biological activity	significant reduction in number of lateral branches	0.03	remained intact	molecularly degrading
	CC1=CC(O/C=C2/C(=O)c3c(c4cc(-c5scc6c5OCCO6)ccc4n3C)C2C)OC1=O (centres unmarked) [ST362, (2E)-2-[(2,5-dihydro-4-methyl-5-oxofuran-2-yloxy)methylene]-1,2-dihydro-7-(2,3-dihydrothieno[3,4-b][1,4]dioxin-7-yl)-1,4-dimethyl-cyclopenta[b]indole-3-(4H)-one]			similar, albeit less potent effect			
led to inhibition of seedling outgrowth	polyvinyl acetate [PVAc]						
